According to patent publication US20060257535A1, “Milk mineral compositions for use with raw meat products” (Glanbia Nutritionals (Ireland) Limited, priority 2005, published 2006):

How the values were obtained:
[1] = Hunter color redness (a*) measurement
Excerpt: (§1) Thiobarbituric acid assay (TBA) values and color of ground beef in 80% oxygen modified atmosphere packaging were examined. The additive compositions used for each treatment are identified in Table 3.
(§2) Co., of Troy Ohio) with a 0.60 cm plate and finely ground using a 0.32 cm plate. The MM, vitamin E and STP were manually mixed with the meat. Meat portions of about 130 grams each were placed in vacuum pouches. […] The meat samples were packaged in PVC-wrapped containers in 80% oxygen MAP (gas cylinder containing 80% oxygen and 20% carbon dioxide available from Praxair Distribution of Salt Lake City, Utah) to simulate retail packaging conditions and held for 14 days at 2° C., which is essentially the same as conventional retail packaging for ground beef. Thiobarbituric acid assay (TBA) and color readings were taken after 1, 4, 7 and 14 days.
The Hunter measurement standard uses the following scales: L=lightness, a=green and red and b=blue and yellow. The L*, a* and b* values were measured using a Hunter Lab Miniscan portable colorimeter (Reston, Va.), standardized using a white and black standard tile. The hue angle was calculated using the formula: hue angle=tan^−1(b*/a*).
Larger hue angles are associated with less red color, where hue angle=0 is red and hue angle=90 is yellow. The raw samples were scored for color, where 1=purple, 2=reddish purple, 3=bright red, 4=tan and 5=brown.

[2] = Thiobarbituric acid reactive substances (TBARS/TBA) assay of oxidative rancidity; settings: for TBA value: mean for entire 14 day study period, 80% oxygen MAP, 2° C
Excerpt: as §1, §2
[…]. Oxidation of fat-containing foods leads to the formation of malondialdehyde or derivates of this compound. […]. Duplicate samples (0.5 g) were mixed with 2.5 ml of solution containing 0.375% TBA (Sigma Chem. Co. of St. Louis, Mo.), 15% trichloroacetic acid (TCA) (Mallinckrodt Baker, Inc. of Paris, Ky.) and 0.25 N hydrochloric acid (HCl). The samples were heated for 10 minutes in a boiling water bath (100° C.) to develop a pink color, cooled in tap water and centrifuged (Sorvall Instruments, Model RC 5C, DuPont, Wilmington, Del.) at 6000 rpm for 10 minutes. The absorbance of the supernatant was measured spectrophotometrically (Spectronic 21D, Milton Roy, Rochester, N.Y.) at 532 nm against a blank that contained all of the reagents minus the meat. The malonaldehyde (MDA) concentration was calculated using an extinction coefficient of 1.56×10^5 M-cm^−1. The MDA concentration was converted to TBA number (mg MDA/kg sample) according to Equation (I): [formula] or to TBA number (parts per million) according to Equation (II): TBA number (ppm)=Sample A532×2.77 (II)
Samples were taken from the exterior surface and the interior portions of the meat and analyzed for rancidity using TBA analysis.

| Compound | red color compared with 0.25% STP and controls ([1]; 0.5% STP, after 14 days, FIG. 2b) | color stability of raw ground beef ([1]; MM more than STP) | TBA values ([2]; 0.25% STP and 0.5% STP, 7 and 14 days following packaging, FIG. 1b) | TBA values compared with control ([2]; 0.25% and 0.5% STP, 14 days following packaging) | TBA values compared with 0.25% STP treatment group ([2]; 0.5% STP, 14 days) | TBA value ([2]; STP 0.25% by weight of meat) | TBA value ([2]; STP 0.5% by weight of meat) | TBA values ([2]; higher level of STP (0.5%), after 14 days of storage) | TBA values (effectiveness compared with 0.5% STP) ([2]; lower level of STP (0.25%), after 14 days of storage) | TBA values compared with treatments with vitamin E ([2]; p<0.05) | a* values ([1]; highest level of vitamin E in ethanol, by 14 days) | red color compared with controls ([1]; vitamin E in mineral oil, after 7 days) | red color compared with control ([1]; vitamin E in oil or in ethanol, FIG. 2c, 2d) | TBA value ([2]; Vit E 50 ppm in ethanol) | TBA value ([2]; Vit E 50 ppm in mineral oil) | TBA value ([2]; Vit E 100 ppm in ethanol) | TBA value ([2]; Vit E 100 ppm in mineral oil) | TBA values compared with control ([2]; both vitamin E preparations (mineral oil, ethanol)) | antioxidant effects (TBA values) ([2]; vitamin E in mineral oil or in ethanol, FIG. 1c, 1d) |
| --- | --- | --- | --- | --- | --- | --- | --- | --- | --- | --- | --- | --- | --- | --- | --- | --- | --- | --- | --- |
| O=P(O)(O)OP(=O)(O)OP(=O)(O)O [STP, sodium tripolyphosphate] | significantly more red color | dramatically increased | low TBA values | significantly lower | significantly lower | 0.65 b | 0.33 c | less than 1 | not as effective | lower |  |  |  |  |  |  |  |  |  |
| vitamin E [Vit E] |  |  |  |  |  |  |  |  |  |  | lowest a* values | significantly less red in color than the controls | did not exhibit any more red color than control samples | 1.67 a | 1.71 a | 1.61 a | 1.74 a | not significantly different from the control | no antioxidant effects |
